Experimental data as given in patent US6632793B1, “Immunological activity for a peptide of the limulus anti-LPS factor” (Centro de Ingenieria Genetica y Biotecnologia, priority 1997, dated 2003).
Where a SMILES comes first, the peptide text is derived from it.

How the values were obtained:
TNF-α in mouse serum = assay: Serum TNF-α after intravenous injection of peptide in mice (ELISA); type: in vivo, mice BalB/c; details: 50 μg intravenously; serum at 0 h, 6 h, 24 h and 48 h; FIG. 3
Method: This approach was developed in mice BalB/c between 6-8 old. The mice were injected intravenously with 50 μg of peptide in 0.1 ml [2.5 mg/kg of body weight] or saline solution as a control. The behavior of animals was observed each 4 hours during 24 h. Survival was followed for one week. Blood was collected for TNF-α quantification from the retroorbital sinus at the time 0 h. 6 h, 24 h and 48 h in the control group and peptide treated-mice. The concentration of TNF-α in mouse serum was determined using a specific ELISA kindly provided by Dr. W. Buurman (University Hospital Maastrich, The Netherlands).

[1] = test system: cytokine mRNA in human PBMCs; assay: Cytokine gene expression in human PBMCs by Ribonuclease Protection Assay (hck-1 probe set); type: cell-based; details: 5 μM for 18 hours; FIG. 8
Method: The Ribonuclease Protection Assay (RPA) is a highly sensitive and specific method for the detection, quantification and characterization of RNA molecules (Gilman^32, M. In Current Protocols in Molecular Biology. J. Wiley and Sons, New York, p. 4.7.1-7.7.8. 1988 and Dent^33, A. L., Shaffer, A. L., Yu […]., 1997. Cytokine expression and germinal center formation by Bcl-2. […] Samples of total RNA from stimulated and nonstimulated human PBMCs were analyzed for distinct mRNA species by PharMingen's RiboQuantTM. Multi-Probe Ribonuclease Protection Assay System with the hck-1 probe template set (Cat. No. 45031P) which including mRNA species analyses for a different cytokine eg. (IL-5, IL-4, IL-10, IL-15, IL-9, IL-2, IL-13, IFN-γ). […] The identity and quantity of each mRNA species in the original RNA sample can then be determined based on the signal intensities given by the appropriately sized of protected probe fragment bands. Unprotected probe set and a probe for housekeeping gene transcripts are incorporating in order to identify and quantify the RNA molecules in the original samples. […] FIG 8: Samples of total RNA from stimulated human PBMCs with 5 μM of peptide for 18 hours were analyzed for distinct mRNA species by using […] […]

`CC[C@H](C)[C@H](NC(=O)[C@H](CCCNC(=N)N)NC(=O)[C@H](Cc1ccc(O)cc1)NC(=O)[C@H](Cc1c[nH]cn1)NC(=O)[C@@H](N)CS)C(=O)N[C@@H](CCCCN)C(=O)N1CCC[C@H]1C(=O)N[C@H](C(=O)N[C@@H](Cc1ccccc1)C(=O)N[C@@H](CCCNC(=N)N)C(=O)N[C@@H](CCCNC(=N)N)C(=O)N[C@@H](CC(C)C)C(=O)N[C@@H](CCCCN)C(=O)N[C@@H](Cc1c[nH]c2ccccc12)C(=O)N[C@@H](CCCCN)C(=O)N[C@@H](Cc1ccc(O)cc1)C(=O)N[C@@H](CCCCN)C(=O)NCC(=O)N[C@@H](CCCCN)C(=O)N[C@@H](Cc1ccccc1)C(=O)N[C@@H](Cc1c[nH]c2ccccc12)C(=O)N[C@@H](CS)C(=O)O)[C@@H](C)O` [LALF] (H-CHYRIKPTFRRLKWKYKGKFWC-OH) was tested, and the “TNF-α production in vivo (in words)” value (TNF-α in mouse serum) was “does not stimulate TNF-α production” and the “Cytokine gene expression in human PBMCs (in words)” value [1] was “able to preferentially induce IFN-γ, IL-2 and IL-13 gene expression”.
